Mass density data for four molecules are collected here from the NIST ThermoML archive (doi:10.1016/j.jct.2012.12.003).

The conditions of the data set: 101.3 kPa, Liquid, Vibrating tube method.

Values joined by “and” are separate entries in the source; they are usually repeats but may differ in a detail not shown here. Equal values may be shown once. ± gives the expanded uncertainty stated by the source.

Turning to `CCCO` [propan-1-ol], the mass density by setting is: (293.15 K) 803.527 ± 0.14 kg/m3; (298.15 K) 799.528 ± 0.14 kg/m3; (303.15 K) 795.493 ± 0.14 kg/m3; (308.15 K) 791.426 ± 0.14 kg/m3; (313.15 K) 787.32 ± 0.15 kg/m3; (318.15 K) 783.164 ± 0.15 kg/m3.
`CC(O)CO` (centres undefined) [1,2-propanediol]: the mass density was 1036.21 ± 0.14 kg/m3 [middle of 4 runs] (293.15 K); 1032.55 ± 0.13 kg/m3 [middle of 4 runs] (298.15 K); 1028.84 ± 0.13 kg/m3 [middle of 4 runs] (303.15 K); 1025.09 ± 0.13 kg/m3 and 1025.1 ± 0.13 kg/m3 and 1025.05 ± 0.13 kg/m3 (308.15 K); 1021.28 ± 0.13 kg/m3 and 1021.31 ± 0.13 kg/m3 (313.15 K); 1017.47 ± 0.13 kg/m3 and 1017.49 ± 0.13 kg/m3 (318.15 K).
For the molecule `CO` [methanol], the mass density (293.15 K) is 791.494 ± 0.17 kg/m3; the mass density (298.15 K) stood at 786.794 ± 0.17 kg/m3; the mass density (303.15 K) stood at 782.071 ± 0.17 kg/m3; the mass density (308.15 K) is on record as 777.326 ± 0.17 kg/m3; the mass density (313.15 K) is on record as 772.55 ± 0.17 kg/m3; the mass density (318.15 K) is given as 767.744 ± 0.17 kg/m3.
With `CCCCCCCCCO` [nonan-1-ol], the mass density came out at 827.667 ± 0.24 kg/m3 (293.15 K); 824.254 ± 0.24 kg/m3 (298.15 K); 820.815 ± 0.24 kg/m3 (303.15 K); 817.362 ± 0.24 kg/m3 (308.15 K); 813.885 ± 0.24 kg/m3 (313.15 K); 810.385 ± 0.24 kg/m3 (318.15 K).

The term mass density denotes mass per unit of volume.
